These results are taken from publication PMC10135567, “New Indole-3-Propionic Acid and 5-Methoxy-Indole Carboxylic Acid Derived Hydrazone Hybrids as Multifunctional Neuroprotectors” (Antioxidants, 2023).

Series [1] deals with isolated rat-brain synaptosomes. The experiment in a line: Synaptosomal viability (MTT), substances administered alone. On the procedure:
(§1) Preparation of the synaptosomes was carried out by multiple centrifugations using the Percoll gradient. Homogenization of the brains was performed in 10 volumes of cold buffer 1, which contained 5 mM HEPES and 0.32 M sucrose (pH = 7.4), followed by centrifugation at different speeds. For preparation of the gradient, the synaptosomes were isolated by Percoll reagent. Synaptosomes were resuspended and incubated in buffer 2, which contained 290 mM NaCl, 0.95 mM MgCl2x6H2O, 10 mM KCl, 2.4 mM CaCl2xH2O, 2.1 mM NaH2PO4, 44 mM HEPES, and 13 mM D-glucose. Incubations were performed in a 5% CO2 + 95% O2 atmosphere. The method of Lowry et al., using bovine serum albumin as a standard content, was applied for determination of synaptosomal protein [51].
Synaptosomal viability was monitored based on a (3-(4,5)-dimethylthiazol-2-yl)-2,5-diphenyl tetrazolium bromide) assay. After incubation with the compounds, synaptosomes were treated with 0.5 mg/mL solution of (3-(4,5)-dimethylthiazol-2-yl)-2,5-diphenyl tetrazolium bromide) for 10 min at […]. Then, the synaptosomes were centrifuged twice at 15,000× g for 1 min. The resulting formazan crystals were dissolved in DMSO (dimethyl sulfoxide), and the extinction was determined by spectrophotometric measurements at 580–660 nm. […]

For series [2] the test system is unchanged. Nature of the series: Level of reduced glutathione (GSH) in isolated synaptosomes, substances administered alone. On the procedure: as §1
After the treatment with the tested compounds, the glutathione levels of the synaptosomes were determined with an Ellman reagent (DTNB). The GSH levels were evaluated based on the synaptosomal sediment, precipitated with 5% TCA, and centrifuged for 10 min at 4000× g. GSH levels in the supernatant were measured spectrophotometrically at 412 nm by a Spectro UV-vis split spectrophotometer (LaboMed. Inc., Los Angelis, California, USA). […]

Series [3] can be described thus: Fe(II)-induced lipid peroxidation assay (LP assay, TBARS). The settings on record: 90 µM, lecithin 1 mg/mL, 0.1 mM FeCl2; lower = stronger antioxidant. In kind it is biochemical. On the procedure: (§2) The lipid peroxidation assay and a modification of the deoxyribose-degradation assay were used. Two types of measurement compositions in phosphate buffer (PB–K2HPO4/KH2PO4, pH 7.4) were prepared for both tests: (i) samples, containing the biologically relevant molecules (lecithin emulsion or deoxyribose), iron, and the tested hydrazones at the concentrations indicated below the figures; and (ii) controls, in which the tested hydrazones were omitted. The data for the sample activity were presented as a percentage of the control measurement.
The thiobarbituric-acid reactive-substance colorimetric test was performed in a model system of Fe(II)-induced lipid peroxidation as an emulsion prepared from egg yolk phospholipids. Each sample contained 1 mg/mL of lecithin. LP was initiated using 0.1 mM FeCl2. After 30 min incubation at 37 °C, 0.5 mL of 2.8% trichloroacetic acid solution and 0.5 mL of 0.5% thiobarbituric acid solution were added, following a second incubation at 100 °C for 20 min. Centrifugation at 3000 rpm for 20 min at 4 °C was performed, and we determined the absorbance value of the supernatant at 532 nm via Shimadzu UV-1601 UV-VIS spectrophotometer.

The nature of series [4]: Fe(II)-induced deoxyribose degradation assay. Type of series: biochemical. As to conditions: 80 µM, 2-deoxyribose 0.5 mM, 0.1 mM FeCl2; lower = stronger antioxidant. How it is done:
as §2
The deoxyribose (0.5 mM) damage was induced by adding FeCl2 (0.1 mM). The measurement compositions were incubated at 37 °C for 30 min. The next step comprised adding 0.5 mL of 2.8% trichloroacetic acid and 0.5 mL of thiobarbituric acid. Then, the samples were heated in boiling water for 20 min, and their absorbance was estimated at 532 nm (characteristic band for the generated chromophore) via Shimadzu UV-1601 UV-vis spectrophotometer.

A short description of series [5]: MTT cell viability assay (cytotoxicity), SH-SY5Y. As to conditions: human, SH-SY5Y neuroblastoma cells. On the procedure: Neuroblastoma cell line SH-SY5Y (94030304) was acquired from the European Collection of Cell Cultures (ECACC, Salisbury, UK). Cells were cultured in a medium prepared with RPMI basic media supplemented with 10% heat-inactivated FBS (fetal bovine serum), 2 mM L-glutamine, 1% antibiotics (penicillin/streptomycin), and incubated at 37 °C in a humidified atmosphere containing 5% of CO2. The culture’s medium was replaced at a time interval of 2–3 days.
(§3) Cell viability was assessed via the mitochondrial reductase-dependent reaction of (3-(4,5-dimethylthiazol-2-yl)- 2,5-diphenyl tetrazolium bromide (MTT, cat. no. 475989, Calbiochem, Merck KGaA, Darmstadt, Germany). The SH-SY5Y and bEnd3 cell lines were seeded in 96-well plates at a density of 0.7 × 10^4 (bEnd3) or 2 × 10^4 (SH-SY5Y) cells/well and allowed to adhere for 24 h at 37 °C, 5% CO2. Then, the cells were incubated with the compounds (1–500 μM) for a preset time (24 h). For the solvent, the control cells were treated with DMSO corresponding to the highest concentration of DMSO in the samples (0.5% DMSO) in order to exclude its cytotoxic effect on the cells. For each concentration, a set of at least 6 wells were used. After incubation, the solution from each well was exchanged with fresh culture medium (100 µL/well), containing the MTT reagent (0.5 mg/mL) and incubated for 3 h at 37 °C in a humidified atmosphere and 5% CO2. The obtained formazan crystals were dissolved in 100 µL/well of 5% formic acid in propan-2-ol solution (or DMSO). The absorbance was measured at 570 nm via multiplate reader Tecan Infinite F200 PRO (Tecan Trading AG., Männedorf, Switzerland) or Synergy 2 (BioTek Instruments, Inc., Highland Park, Winooski, VT, USA).
(§4) Both the SH-SY5Y and bEnd3 cells were treated with the test compounds in a concentration range from 1 to 500 µM for 24 h.
Background: Formazan colour is commonly taken as a measure of viable cells.

The nature of series [6]: MTT cell viability assay (cytotoxicity), bEnd3. In kind it is cell-based, mouse. The settings on record: mouse, bEnd3 brain endothelial cells, 1–500 µM. How it is done:
Mouse-brain endothelial cell line bEnd3 [36] (CRL-2299) was purchased from the American Type Culture Collection (ATCC, Manassas, VA, USA). The cells were cultured in DMEM (Dulbeco’s modified essential medium) (cat. no. 30-2002, ATCC, Manassas, VA, USA), supplemented with 10% heat-inactivated FBS (cat. no. F7524, Sigma-Aldrich Co. LLC, St. Louis, MO, USA), 1 mM L-glutamine (cat. no. G7513, Sigma-Aldrich Co. LLC, St. Louis, MO, USA) and 1× Antibiotic-Antimycotic solution (penicillin: streptomycin: amphotericin B (100 U/mL: 0.10 mg/mL: 0.25 µg/mL) (cat. no. A5955, Sigma-Aldrich Co. LLC, St. Louis, MO, USA) at 37 °C in a humidified atmosphere containing 5% CO2. The cells were passaged in 75 cm^2 flasks every 3–5 days via trypsinization (StableCell Trypsin solution, cat. no. T2610, Sigma-Aldrich Co. LLC, St. Louis, MO, USA).
as §3, §4

The test system of series [7] is isolated rat-brain synaptosomes. Nature of the series: 6-OHDA-induced neurotoxicity in isolated rat synaptosomes, synaptosomal viability. In kind it is cell-based. The settings on record: Rattus norvegicus; 10 µM pre-incubation 30 min, then 150 µM 6-OHDA 1 h; read-out: synaptosomal viability (SV) preserved, as compared to 6-OHDA. On the procedure:
(§5) This neurotoxicity model was based on the metabolism and auto-oxidation of 6-hydroxy dopamine responsible for the reactive oxygen species and quinones generation, ultimately leading to neurotoxicity and neurodegeneration. The experiment was performed by pre-incubation of the synaptosomes with 10 µM of the compounds for 30 min, followed by the addition of 150 µM 6-hydroxy dopamine for induction of neurotoxicity. After 1 h, they were centrifuged twice for 1 min at 15,000 × g. After the second wash, the precipitates were resolved with buffer B and glucose.

A short description of series [8]: O-phenanthroline Fe(II) chelation test. Type of series: physicochemical. As to conditions: 200 µM compound, FeCl2. How it is done: The Fe (II)-chelating activity of the tested hydrazones was determined by the O-phenanthroline method. A total of 1 mL sample solutions of 50 mM PB pH 7 contained 0.2 mM O-phenanthroline and 0.05 mM FeCl2 and 0.2 mM hydrazone. In the controls, the tested compounds were omitted. Absorbance was measured at 515 nm via GENESYS 50 UV-VIS spectrophotometer after incubation for 5 min at 37 °C. The data for the sample activity were presented as a percentage of the control measurement. Absorbance spectra of all the samples, the control, and the measurement compositions containing the tested hydrazones and Fe(II) at the concentrations used in the samples were measured.
To explain the results of both systems of Fe(II)-induced oxidative damage, we studied the potency of the tested compounds to chelate-iron (Fe(II)). This was studied by spectrophotometric determination of free iron (Fe(II)) using the ortho-phenanthroline test, as 1,10-phenantroline reacts rapidly with Fe(II) ions in weakly acidic media, generating an orange–red complex (ferroin) with characteristic absorbance spectra (molar absorptivity 1.10.104 (α = 0.20) at ~max 512 nm and a molar ratio 3:1 (R: Fe(II))). The generated complex was stable, and the bound Fe(II) was resistant to oxidation. Lower absorbance of the reaction mixture indicated higher Fe^2+-chelating activity.

A short description of series [9]: Superoxide radical scavenging, xanthine/xanthine oxidase/NBT system. Type of series: biochemical. How it is done: The 1 mL cuvette for the control contained 1 mM xanthine, 20 µL xanthine oxidase (100 IU/L), and 0.04 mM NBT [43, 44]. In the sample compositions, the tested hydrazones at different concentrations were added. All measurement compositions were incubated at 37 °C, and the absorbance was determined spectrophotometrically at 560 nm via Shimadzu UV-1601 UV-vis spectrophotometer.
The potential capability of the investigated compounds to prevent the superoxide-anion radical-induced NBT reduction was investigated spectrophotometrically by xanthine-oxidase assay. The assay was carried out at the final concentration of the tested compounds, at 1, 10, 50, and 100 µM.

The test system of the next series is SH-SY5Y cells. The experiment in a line: H2O2-induced oxidative stress model in SH-SY5Y cells. In kind it is cell-based, human. The settings on record: H2O2 1 mM 15 min. On the procedure:
The SH-SY5Y cells were seeded in 96-well plates at a density of 3.5 × 10^4/well in 100 μL of RPMI supplemented with FBS for 24 h. Then, the cell medium was aspirated, and the cells were treated with different concentrations of the compounds—1, 10, and 50 µM for 90 min. Afterwards, the SH-SY5Y cells were washed with PBS and were exposed to hydrogen peroxide (H2O2) (1 mM in PBS for 15 min) to induce oxidative stress. All well contents were replaced by fresh culture medium and incubated for 24 h. MTT assay was used to evaluate the amount of attached viable cells. Negative controls (cells without H2O2 treatment) were considered as 100% protection and H2O2-treated cells as 0% protection.
To evaluate the possible neuroprotective effects of the compounds, the SH-SY5Y cells were pre-treated with different concentrations (1, 10, 50 µM) for 90 min and then exposed to H2O2 (1 mM) for 15 min. The cell viability of all compounds was measured to verify their protective effect against the toxicity of hydrogen peroxide.

In series [10] the test system is isolated rat-brain synaptosomes. Nature of the series: 6-OHDA-induced neurotoxicity in isolated rat synaptosomes, GSH level. In kind it is cell-based. The settings on record: 10 µM pre-incubation 30 min, then 150 µM 6-OHDA 1 h. How it is done: as §5

Where a name gives a salt, the structure may show the parent alone.

For `NCCc1cc(O)c(O)cc1O` [Compound 6-OHDA, 6-hydroxydopamine], the “decrease of synaptosomal viability (SV) vs. non-treated synaptosomes” value in series [1] (150 µM) is recorded as 55%. In addition, the “decrease of GSH level vs. non-treated synaptosomes” value in [2] (150 µM) was 50%.
Take `O=c1c(O)c(-c2ccc(O)c(O)c2)oc2cc(O)cc(O)c12` [quercetin, reference compound]: the “absorbance ratio sample/control (lipid peroxidation)” value (“absorbance ratio sample/control” for short) in series [3] came out at 23%. In addition, the “absorbance ratio, % of the controls (deoxyribose degradation)” value in series [4] is on record as “about 50%”.
Turning to `O=C(CCc1c[nH]c2ccccc12)NN=Cc1ccc(O)c(O)c1` [Compound 3b, N′-(3,4-Dihydroxybenzylidene)-3-(1H-indol-3-yl)propanehydrazide], the IC50 at 24 h in series [5] was found to be 265 µM; in series [6], 352 µM. In addition, in [7], the viability at 10 µM turned out to be 33%. For the same compound, in series [3], the “absorbance ratio sample/control” value is “below 65%”. The “absorbance at 515 nm compared to the controls (Fe(II) chelation)” value in series [8] was “statistically identical absorbance values at 515 nm, as compared to the controls”. In addition, the “decrease of NBT reduction as compared to the controls” value in series [9] (100 µM (highest tested concentration)) is recorded as “more than 40%”.
For the compound `O=C(CCc1c[nH]c2ccccc12)NN=Cc1ccc(O)cc1O` [Compound 3c, N′-(2,4-Dihydroxybenzylidene)-3-(1H-indol-3-yl)propanehydrazide], the melting point was in the range of 239 to 240 °C. Moreover, in series [5], the IC50 at 24 h was 275 µM. For the same compound, in series [6], the IC50 at 24 h was over 500 µM. The viability at 10 µM in series [7] worked out at 33%. The “absorbance ratio sample/control” value in series [3] was “below 65%”. The “absorbance ratio, % of the controls (deoxyribose degradation)” value in series [4] was “did not induce a modulating effect”. Besides, the “absorbance at 515 nm compared to the controls (Fe(II) chelation)” value in series [8] is “statistically identical absorbance values at 515 nm, as compared to the controls”. Further, the “absorbance ratio (NBT reduction, % of control)” value in series [9] (1, 10, 50 and 100 µM) is “did not influence the estimated absorbance ratio at any of the tested concentrations”.
Regarding `C#CCN[C@@H]1CCc2ccccc21` [Rasagiline.HCl, Rasagiline], the half-maximal inhibitory concentration (IC50) at 24 h in [5] is over 500 µM. Moreover, the “protective effect: increased cell viability of SH-SY5Y vs. H2O2 group” value with SH-SY5Y cells (10 µM pre-treatment 90 min) was 40%; in the series on SH-SY5Y cells (50 µM pre-treatment 90 min), 46%. The “reduction of synaptosomal viability (SV) vs. non-treated synaptosomes” value in [1] (100 µM) was determined as 25%. In addition, in series [2] (100 µM), the “reduction of GSH level vs. non-treated synaptosomes” value is on record as “did not decrease”. The viability at 10 µM in series [7] turned out to be 67%. Further, the “GSH level preserved, as compared to 6-OHDA” value in series [10] is recorded as 80%.

As a reminder, the IC50 is the point on the concentration scale where inhibition reaches its midpoint. Broadly, the viability is a read-out of living cells in per cent, often relative to untreated cells. In general, melting point refers to the temperature of the solid-liquid transition.
